From publication PMC6656724 (Communications Biology, 2019)
“And” between values parts separate entries of the source, which are not always exact repeats. Equal values may be shown once.

Columns and labels:
PfKMO [1] = molecular target: T1, PfKMO (Pseudomonas fluorescens, UniProt Q84HF5, C252S/C461S); assay: biochemical; conditions: for Mechanism of inhibition with respect to L-KYN / Mechanism of inhibition with respect to NADPH: PfKMO
T1 construct: made in house; host or cells: E. coli BL21 (DE3)
Protocol: saturating concentrations of the L-KYN and NADPH substrates. Data are plotted […]
(§1) consumption of NADPH at 340 nm upon addition of enzyme via a Cary 50 UV-Vis spectrophotometer (Agilent Technologies). Rates were determined from linear regression fits to the initial linear portion of the curves. All measurements were performed in triplicate. The IC50 values for inhibitors were obtained by plotting the percentage inhibition versus the inhibitor concentration and fitting to the Morrison equation16 (equation 1) using Origin 9.0 Software (OriginLab, Northampton, MA).
E + I + K!"" − E + I + K!"" ! − 4[E][I] where v0 is the enzyme activity without inhibitor, vi is the enzyme activity with ligand concentration [I], [E] is the enzyme concentration, [I] is the inhibitor concentration, K!"" is the apparent inhibition constant and IC = K!"" + [!] . If K!"" ≫ [!], IC ≈ […]
where Ki is the inhibition constant, [S] is the substrate concentration used in the assay and Km is the Michaelis-Menten constant17. […]
between Ki and Ki apparent values, as the conditions for measuring IC50 are different, Ki values can be used to compare with other reported KMO inhibitors.
Steady-state kinetic parameters for PfKMO were calculated by measuring initial rates […]
the observed rate of turnover (v) versus the varied substrate concentration were fitted to equation 2 using Origin 9.0 Software (OriginLab, Northampton, MA).
A B + K!! B + K!! A + K!!K!! where v is the initial rate of activity, Vmax is the maximum velocitie of the reaction, [A] and [B] are the substrate concentration, K!! and K!! are the Michaelis-Menten constant for different substrate and K!! is the inhibition (binding) constant of substrate A to the free enzyme while forming transitory complexes.18
Product inhibition studies were carried out by measuring reaction rates at varying […]
one substrate and varying concentrations of the other substrate. Inhibition studies with target compounds were carried out by measuring reaction rates at varying inhibitor concentrations at saturating concentrations of one substrate and varying concentrations of the other substrate. […]
were used to distinguish between different types of inhibition. The data were fitted to a straight line defined by the Lineweaver-Burke equation (equation 4), with the y intercept providing 1/Vmax and the x intercept giving -1/Km. […]

PfKMO [2] = molecular target: T1, PfKMO; assay: Stopped-flow reduction of flavin cofactor by NADPH; type: biochemical; conditions: for Reduction rate of flavin cofactor: PfKMO with saturating ligand, 2 mM NADPH, 25 °C, anaerobic; for Stimulation of KMO reduction by NADPH: rapid mixing stopped-flow assays
Protocol: The reduction rate of the flavin cofactor by NADPH was measured using a stopped-flow spectrophotometer (Applied Photophysics Ltd), which was housed in an anaerobic glovebox (Belle Technology). […] The reduction of the flavin was monitored by the decrease in the absorbance of the flavin at 450 nm and transients were fitted to either double or triple exponentials.
Supplementary Figure 13. Reduction of flavin cofactor by NADPH in the presence and absence of ligands. Anaerobic mixtures of 10 µM PfKMO with or without ligand were mixed against anaerobic 2 mM NADPH on a stopped-flow spectrophotometer at 25℃. a, 10 µM PfKMO mixed with 2 mM NADPH; b, 10 µM

[3] = system: KMO activity in the striatum; assay: De novo 3-HK synthesis after intrastriatal [5-3H]-kynurenine; type: in vivo, Sprague–Dawley rats
[4] = molecular target: T2, Pseudomonas fluorescens KMO (PfKMO) (Pseudomonas fluorescens, UniProt Q84HF5, C252S/C461S); assay: biochemical
T2 construct: made in house; host or cells: E. coli BL21 (DE3)
Description: (§2) A combination of ligand- and structural-based virtual screening approaches (see supporting information for details) was used to identify an initial library of >1000 compounds that may be suitable as potential KMO inhibitors. These compounds were screened for inhibition of Pseudomonas fluorescens KMO (PfKMO) and Homo sapiens KMO (HsKMO) using high-throughput assays by monitoring the time-dependent oxidation of NADPH at 340 nm[23].
(§3) Small-molecule compounds were supplied by Biofocus (Charles River Laboratories International Inc., MA, USA), which were identified in silico as potential inhibitors (further details are described in the Supplementary Methods). Initial inhibition assays were performed against Pseudomonas fluorescens KMO (PfKMO) and Homo sapiens KMO (HsKMO) by monitoring the time-dependent absorbance change of NADPH at 340 nm. Purified KMO protein (200 nM) was incubated in 100 µL reaction buffer (20 mM potassium phosphate pH 8.0, 7 mM 2-mercaptoethanol) containing 100 μM NADPH, 100 μM L-Kyn and 20 μM potential inhibitors in 96-well plates. […] The inhibitors identified in the initial screens were validated and re-assayed individually in a 1 cm path-length quartz micro cuvette. […] Suppliers for target inhibitor compounds are listed in Supplementary Table 11.
Supplementary Figure 1. Examples of inhibition data used to generate IC50 values for selected KMO inhibitors. Fixed concentration of L -KYN (200 µM) and NADPH (100µM) were added into reaction buffer (HsKMO: 20mM potassium phosphate pH 8.0, 7 mM 2-mercaptoethanol; PfKMO: 20 mM HEPES, 10mM sodium acetate, pH 7.5, 2mM DTT). The reaction was initiated by the addition of KMO enzyme (HsKMO: 0.5µM; PfKMO: 0.1 µM). KMO activity was measured in the presence of a range of inhibitor concentrations. […]
(§4) 3.5 Steady-state enzymatic assays.
(§5) Initial screening assays and determination of IC50 values for each potential inhibitor compound were carried out using either 0.1 µM PfKMO or 0.5 µM HsKMO at fixed […]
(§6) (HsKMO: 20 mM potassium phosphate pH 8.0, 7 mM 2-mercaptoethanol; PfKMO:
(§7) 20 mM HEPES, 10 mM sodium acetate, pH 7.5, 2 mM DTT). KMO activity was measured in the presence of a range of inhibitor concentrations by monitoring the […]
consumption of NADPH at 340 nm upon addition of enzyme via a Cary 50 UV-Vis spectrophotometer (Agilent Technologies). Rates were determined from linear regression fits to the initial linear portion of the curves. All measurements were performed in triplicate. The IC50 values for inhibitors were obtained by plotting the percentage inhibition versus the inhibitor concentration and fitting to the Morrison equation16 (equation 1) using Origin 9.0 Software (OriginLab, Northampton, MA). […]

Homo sapiens KMO (HsKMO) = molecular target: T3, Homo sapiens KMO (HsKMO) (Homo sapiens, UniProt O15229); assay: KMO inhibition assay, NADPH oxidation at 340 nm (HsKMO); type: biochemical
T3 construct: GST; made in house
Description: as §2, §3
Supplementary Figure 1. Examples of inhibition data used to generate IC50 values for selected KMO inhibitors.
NADPH (100µM) were added into reaction buffer (HsKMO: 20mM potassium phosphate pH 8.0, 7 mM 2-mercaptoethanol; PfKMO: 20 mM HEPES, 10mM sodium acetate, pH 7.5, 2mM DTT). The reaction was initiated by the addition of KMO enzyme (HsKMO: 0.5µM; PfKMO: 0.1 µM). KMO activity was measured in the presence of a range of inhibitor concentrations. […]
as §4, §5, §6, §7, §1
E + I + K!"" − E + I + K!"" ! − 4[E][I] where v0 is the enzyme activity without inhibitor, vi is the enzyme activity with ligand

T1 sequence (Q84HF5 whole entry C252S/C461S): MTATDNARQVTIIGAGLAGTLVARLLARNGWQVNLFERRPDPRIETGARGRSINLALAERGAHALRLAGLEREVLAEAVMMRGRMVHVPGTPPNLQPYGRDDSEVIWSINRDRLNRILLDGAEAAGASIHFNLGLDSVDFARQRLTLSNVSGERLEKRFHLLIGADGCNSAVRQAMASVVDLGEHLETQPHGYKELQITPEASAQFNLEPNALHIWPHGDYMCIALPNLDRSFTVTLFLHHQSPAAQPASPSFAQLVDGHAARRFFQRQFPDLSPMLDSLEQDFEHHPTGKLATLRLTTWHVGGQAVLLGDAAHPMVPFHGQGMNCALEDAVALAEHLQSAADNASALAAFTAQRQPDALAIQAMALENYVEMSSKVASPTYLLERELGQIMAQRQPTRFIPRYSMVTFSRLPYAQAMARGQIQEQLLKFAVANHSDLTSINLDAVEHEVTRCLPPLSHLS
T2 sequence (Q84HF5 whole entry C252S/C461S): as above
T3 sequence (O15229 whole entry): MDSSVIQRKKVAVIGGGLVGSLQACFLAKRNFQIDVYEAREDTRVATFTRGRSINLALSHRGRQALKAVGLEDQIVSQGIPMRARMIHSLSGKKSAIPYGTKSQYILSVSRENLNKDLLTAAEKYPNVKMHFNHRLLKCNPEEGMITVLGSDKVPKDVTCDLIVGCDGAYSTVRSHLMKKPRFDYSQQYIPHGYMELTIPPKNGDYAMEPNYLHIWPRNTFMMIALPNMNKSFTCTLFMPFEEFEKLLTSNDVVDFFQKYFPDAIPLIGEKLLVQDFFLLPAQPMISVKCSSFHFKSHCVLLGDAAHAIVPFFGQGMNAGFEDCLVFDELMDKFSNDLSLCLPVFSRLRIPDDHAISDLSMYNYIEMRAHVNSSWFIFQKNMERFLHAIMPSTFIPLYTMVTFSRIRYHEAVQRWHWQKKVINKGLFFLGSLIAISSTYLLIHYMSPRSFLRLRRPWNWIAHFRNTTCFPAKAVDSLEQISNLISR

Row | Compound | Km (PfKMO [1]; substrates of PfKMO) [µM] | Reduction rate of flavin cofactor (PfKMO [2]) [s⁻¹] | Reduction of [3H]-3-HK ([3]; rat striatum, 50 mg/kg i.v., 1 h) | Percentage of [5-3H]-KYN that is metabolized into [3H]-3-HK ([3]; striatum of awake rats, 1 h after 50 mg/kg i.v., single rats) | Ki (PfKMO [1]) [µM] | Mechanism of inhibition with respect to L-KYN (PfKMO [1]) | Mechanism of inhibition with respect to NADPH (PfKMO [1]) | IC50 [4] [µM] | Stimulation of KMO reduction by NADPH (PfKMO [2]) | IC50 (Homo sapiens KMO (HsKMO)) [µM]
1 | Nc1ccccc1C(=O)C[C@H](N)C(=O)O [L-KYN, reference compound] | 12.1 ± 1.4 | 339 ± 16.6 |  |  |  |  |  |  |  | 
2 | COc1ccc(S(=O)(=O)Nc2nc(-c3cccc([N+](=O)[O-])c3)cs2)cc1OC [Ro 61-8048] |  |  | no reduction | 2.76% and 5.1% and 4.48% and 5.65% and 2.31% and 2.1% |  |  |  |  |  | 
3 | Cn1c(C(=O)N[C@@H](C(=O)O)c2ccccc2)cc2cc(Cl)ccc21 [compound 4, (R)-2-(5-chloro-1-methyl-1H-indole-2-carboxamido)-2-phenylacetic acid] |  | 0.03 ± 0.005 |  |  | 3 ± 0.24 | competitive inhibitor | mixed type inhibitors | 59.8 ± 7.14 | do not stimulate | 6.1
4 | O=C(O)c1ccc(-c2cccc(Cl)c2Cl)o1 [compound 9, 5-(2,3-dichlorophenyl) furan-2-carboxylic acid] |  | 0.03 ± 0.001 |  |  | 0.15 ± 0.01 | competitive inhibitor | competitive inhibitor | 4.3 ± 0.2 | do not stimulate | 39.6
5 | O=C(O)c1ccc(-c2ccc(Cl)c(Cl)c2)o1 [compound 13, 5-(3,4-dichlorophenyl) furan-2-carboxylic acid] |  | 0.06 ± 0.002 |  |  | 0.02 ± 0.001 | competitive inhibitor | mixed type inhibitors | 0.4 ± 0.02 | do not stimulate | 63.1
